Measured values as given in US8927500B2, “Peptidomimetic macrocycles” (Aileron Therapeutics, Inc., priority 2012, dated 2015).
pIC50, pKi: −log10 of the molar value. Read-outs that look alike come from different tables or passages of the source. Where a SMILES comes first, the peptide text is derived from it. Bridges are numbered along the chain shown (N, C = ends). [ ]: non-standard residue; d: D form. Phe(4-B(OH)2) = N[C@@H](Cc1ccc(B(O)O)cc1)C(=O)O; dPhe(4-CF3) = N[C@H](Cc1ccc(C(F)(F)F)cc1)C(=O)O; Phe(3,4-F2) = N[C@@H](Cc1ccc(F)c(F)c1)C(=O)O; Gla = N[C@@H](CC(C(=O)O)C(=O)O)C(=O)O; R8 = C=CCCCCCC[C@@](C)(N)C(=O)O; Cba = N[C@@H](CC1CCC1)C(=O)O; R5 = C=CCCC[C@@](C)(N)C(=O)O; S5 = C=CCCC[C@](C)(N)C(=O)O; Nle = CCCC[C@H](N)C(=O)O; Sar = CNCC(=O)O

Key:
MDMX = target: T1, MDMX (Homo sapiens, UniProt O15151); assay: Competitive fluorescence polarization assay for MDMX; type: binding; conditions: competitive FP assay; for pIC50: read-out: IC50 (MDMX)
T1 sequence (O15151 1-125): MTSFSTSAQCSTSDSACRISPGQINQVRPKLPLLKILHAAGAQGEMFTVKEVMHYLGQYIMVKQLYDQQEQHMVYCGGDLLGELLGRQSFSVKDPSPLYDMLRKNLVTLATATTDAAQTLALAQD

MDM2 = MDM2 (Homo sapiens, UniProt Q00987); assay: Competitive fluorescence polarization assay for MDM2; type: binding; conditions: competitive FP assay, MDM2; for pIC50: read-out: IC50 (MDM2)
Sequence of MDM2 (Q00987 1-125): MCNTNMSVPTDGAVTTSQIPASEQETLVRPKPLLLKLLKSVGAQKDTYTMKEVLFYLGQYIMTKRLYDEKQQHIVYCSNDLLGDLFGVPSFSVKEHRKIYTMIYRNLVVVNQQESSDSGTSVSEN

| SMILES | pKi (MDMX; read-out: Ki (MDMX)) | pKi (MDM2; read-out: Ki (MDM2)) | pIC50 (MDMX) | pIC50 (MDM2) | pKi (MDMX; Ki (MDMX)) | pKi (MDM2; Ki (MDM2)) |
| --- | --- | --- | --- | --- | --- | --- |
| CC(=O)N[C@@H](CC(C)C)C(=O)N[C@H](C(=O)N[C@@H](Cc1ccccc1)C(=O)N[C@]1(C)CCCCCCC=CCCC[C@@](C)(C(=O)N[C@@H](C)C(=O)N[C@@H](C)C(=O)N[C@@H](C)C(=O)N[C@@H](C)C(=O)N[C@@H](C)C(=O)N[C@H](C)C(N)=O)NC(=O)[C@H](CC(C)C)NC(=O)[C@H](CCC(N)=O)NC(=O)[C@H](C)NC(=O)[C@H](Cc2c[nH]c3ccccc23)NC(=O)[C@H](Cc2ccc(B(O)O)cc2)NC(=O)[C@H](CCC(=O)O)NC1=O)[C@@H](C)O [compound 556] (Ac-LTF[R8]E[Phe(4-B(OH)2)]WAQL[S5]AAAAA[dA]-NH2; staple 4-11) |  |  |  |  | 7.00 to 8.00 | > 8.00 |
| CC(=O)N[C@@H](CC(C)C)C(=O)N[C@H](C(=O)N[C@@H](C)C(=O)N[C@]1(C)CCCCCCC=CCCC[C@@](C)(C(=O)N[C@@H](C)C(=O)N[C@@H](C)C(=O)N[C@@H](C)C(=O)N[C@@H](C)C(=O)N[C@@H](C)C(=O)N[C@H](C)C(N)=O)NC(=O)[C@H](CC(C)C)NC(=O)[C@H](CCC(N)=O)NC(=O)[C@H](C)NC(=O)[C@H](Cc2c[nH]c3ccccc23)NC(=O)[C@H](Cc2ccc(O)cc2)NC(=O)[C@H](CCC(=O)O)NC1=O)[C@@H](C)O [compound 560] (Ac-LTA[R8]EYWAQL[S5]AAAAA[dA]-NH2; staple 4-11) |  |  |  |  | < 6.00 | < 6.00 |
| CC(=O)N[C@@H](CC(C)C)C(=O)N[C@H](C(=O)N[C@@H](Cc1ccccc1)C(=O)N[C@]1(C)CCCCCCC=CCCC[C@@](C)(C(=O)N[C@@H](C)C(=O)N[C@@H](C)C(=O)N(C)CC(=O)N[C@@H](C)C(=O)N[C@@H](C)C(=O)N[C@H](C)C(N)=O)NC(=O)[C@H](CC(C)C)NC(=O)[C@H](CCC(N)=O)NC(=O)[C@H](C)NC(=O)[C@H](Cc2c[nH]c3ccccc23)NC(=O)[C@H](Cc2ccc(O)cc2)NC(=O)[C@H](CCC(=O)O)NC1=O)[C@@H](C)O [compound 575] (Ac-LTF[R8]EYWAQL[S5]AA[Sar]AA[dA]-NH2; staple 4-11) | 7.00 to 8.00 | > 8.00 |  |  |  |  |
| CC[C@H](C)[C@H](NC(C)=O)C(=O)N[C@H](C(=O)N[C@@H](Cc1ccccc1)C(=O)N[C@]1(C)CCCCCCC=CCCC[C@@](C)(C(=O)N[C@@H](C)C(=O)N[C@@H](Cc2c[nH]cn2)C(=O)N[C@@H](Cc2ccccc2)C(=O)N[C@@H](C)C(N)=O)NC(=O)[C@H](CC(C)C)NC(=O)[C@H](CCC(N)=O)NC(=O)[C@H](C)NC(=O)[C@H](Cc2c[nH]c3ccccc23)NC(=O)[C@H](Cc2ccc(O)cc2)NC(=O)[C@H](Cc2ccccc2)NC1=O)[C@@H](C)O (single isomer, unassigned) [compound 185] | 6.00 to 7.00 | > 8.00 | < 6.00 | 7.00 to 8.00 |  |  |
| CC(=O)N[C@@H](CC(C)C)C(=O)N[C@H](C(=O)N[C@@H](Cc1ccccc1)C(=O)N[C@]1(C)CCCCCCC=CCCC[C@@](C)(C(=O)N[C@@H](C)C(=O)N[C@@H](C)C(=O)N[C@@H](C)C(=O)N[C@@H](C)C(=O)N[C@@H](C)C(=O)N[C@H](C)C(N)=O)NC(=O)[C@H](CC(C)C)NC(=O)[C@H](CCC(N)=O)NC(=O)[C@H](C)NC(=O)[C@H](Cc2c[nH]c3ccccc23)NC(=O)[C@H](Cc2ccc(O)cc2)NC(=O)[C@H](CC(C(=O)O)C(=O)O)NC1=O)[C@@H](C)O [compound 602] (Ac-LTF[R8][Gla]YWAQL[S5]AAAAA[dA]-NH2; staple 4-11) |  |  |  |  | > 8.00 | > 8.00 |
| CC(=O)N[C@@H](CC(C)C)C(=O)N[C@H](C(=O)N[C@@H](Cc1ccc(F)c(F)c1)C(=O)N[C@]1(C)CCCCCCC=CCCC[C@@](C)(C(=O)N[C@@H](CO)C(=O)N[C@@H](C)C(=O)N[C@@H](Cc2ccccc2)C(N)=O)NC(=O)[C@H](CC2CCC2)NC(=O)[C@H](CCC(N)=O)NC(=O)[C@H](C)NC(=O)[C@H](Cc2c[nH]c3ccccc23)NC(=O)[C@H](Cc2ccc(O)cc2)NC(=O)[C@H](C)NC1=O)[C@@H](C)O [compound 259] (Ac-LT[Phe(3,4-F2)][R8]AYWAQ[Cba][S5]SAF-NH2; staple 4-11) | 7.00 to 8.00 | > 8.00 | 7.00 to 8.00 | 7.00 to 8.00 |  |  |
| CC(=O)N[C@@H](CC(C)C)C(=O)N[C@H](C(=O)N[C@@H](Cc1ccccc1)C(=O)N[C@]1(C)CCCCCCC=CCCC[C@@](C)(C(=O)N[C@@H](C)C(=O)N[C@@H](C)C(=O)N[C@@H](Cc2ccccc2)C(=O)N[C@H](C)C(N)=O)NC(=O)[C@H](CC(C)C)NC(=O)[C@H](CCC(N)=O)NC(=O)[C@H](C)NC(=O)[C@H](Cc2c[nH]c3ccccc23)NC(=O)[C@H](Cc2ccc(O)cc2)NC(=O)[C@H](C)NC1=O)[C@@H](C)O (single isomer, unassigned) [compound 210] | 7.00 to 8.00 | > 8.00 | 6.00 to 7.00 | > 8.00 |  |  |
| CC(=O)N[C@@H](CC(C)C)C(=O)N[C@H](C(=O)N[C@@H](Cc1ccccc1)C(=O)N[C@]1(C)CCCCCCC=CCCC[C@@](C)(C(=O)N[C@@H](C)C(=O)N[C@@H](C)C(=O)N[C@@H](C)C(=O)N[C@@H](C)C(=O)N[C@@H](C)C(=O)N[C@H](C)C(N)=O)NC(=O)[C@H](CC(C)C)NC(=O)[C@H](CCC(N)=O)NC(=O)[C@H](C)NC(=O)[C@H](Cc2c[nH]c3ccccc23)NC(=O)[C@H](Cc2ccc(O)cc2)NC(=O)[C@H](CCC(N)=O)NC1=O)[C@@H](C)O [compound 600] (Ac-LTF[R8]QYWAQL[S5]AAAAA[dA]-NH2; staple 4-11) |  |  |  |  | > 8.00 | > 8.00 |
| CCCC[C@H](NC(=O)[C@H](Cc1c[nH]c2ccccc12)NC(=O)[C@H](C)NC(=O)[C@]1(C)CCCC=CCCCCCC[C@@](C)(NC(=O)[C@H](Cc2ccccc2)NC(=O)[C@@H](NC(=O)[C@H](CC(C)C)NC(C)=O)[C@@H](C)O)C(=O)N[C@@H](C)C(=O)N[C@@H](Cc2ccc(O)cc2)C(=O)N[C@@H](Cc2c[nH]c3ccccc23)C(=O)N[C@@H](C)C(=O)N[C@@H](CCC(N)=O)C(=O)N[C@@H](CC2CCC2)C(=O)N1)C(=O)N[C@@H](C)C(N)=O [compound 239] (Ac-LTF[R8]AYWAQ[Cba][S5]AW[Nle]A-NH2; staple 4-11) | 7.00 to 8.00 | 7.00 to 8.00 | 6.00 to 7.00 | 7.00 to 8.00 |  |  |

Continued, in another order:

| pKi (MDMX; read-out: Ki (MDMX)) | pKi (MDM2; read-out: Ki (MDM2)) | pIC50 (MDMX) | pIC50 (MDM2) | SMILES | pKi (MDMX; Ki (MDMX)) | pKi (MDM2; Ki (MDM2)) |
| --- | --- | --- | --- | --- | --- | --- |
| 7.00 to 8.00 | > 8.00 | 6.00 to 7.00 | > 8.00 | CCCC[C@H](NC(=O)[C@H](C)NC(=O)[C@H](C)NC(=O)[C@]1(C)CCCC=CCCCCCC[C@@](C)(NC(=O)[C@H](Cc2ccccc2)NC(=O)[C@@H](NC(=O)[C@H](CC(C)C)NC(C)=O)[C@@H](C)O)C(=O)N[C@@H](C)C(=O)N[C@@H](Cc2ccc(O)cc2)C(=O)N[C@@H](Cc2c[nH]c3ccccc23)C(=O)N[C@@H](CO)C(=O)N[C@@H](CCC(N)=O)C(=O)N[C@@H](CC(C)C)C(=O)N1)C(=O)N[C@@H](C)C(N)=O [compound 306] (Ac-LTF[R8]AYWSQL[S5]AA[Nle]A-NH2; staple 4-11) |  |  |
| 7.00 to 8.00 | 7.00 to 8.00 | 6.00 to 7.00 | 6.00 to 7.00 | CCCC[C@H](NC(=O)[C@H](C)NC(=O)[C@H](C)NC(=O)[C@]1(C)CCCC=CCCCCCC[C@@](C)(NC(=O)[C@H](Cc2ccccc2)NC(=O)[C@H](C)NC(=O)[C@H](CC(C)C)NC(C)=O)C(=O)N[C@@H](CCC(=O)O)C(=O)N[C@@H](Cc2ccc(O)cc2)C(=O)N[C@@H](Cc2c[nH]c3ccccc23)C(=O)N[C@@H](C)C(=O)N[C@@H](CCC(N)=O)C(=O)N[C@@H](CC(C)C)C(=O)N1)C(=O)N[C@@H](C)C(N)=O [compound 369] (Ac-LAF[R8]EYWAQL[S5]AA[Nle]A-NH2; staple 4-11) |  |  |
| 7.00 to 8.00 | > 8.00 | 6.00 to 7.00 | > 8.00 | CC(=O)N[C@@H](CCC(=O)O)C(=O)N[C@H](C(=O)N[C@@H](Cc1ccccc1)C(=O)N[C@]1(C)CCCCCCC=CCCC[C@@](C)(C(=O)N[C@@H](CO)C(=O)N[C@@H](CC(N)=O)C(=O)N[C@H](C)C(N)=O)NC(=O)[C@H](CC(C)C)NC(=O)[C@H](CCC(N)=O)NC(=O)[C@H](C)NC(=O)[C@H](Cc2c[nH]c3ccccc23)NC(=O)[C@H](Cc2ccc(O)cc2)NC(=O)[C@H](C(C)C)NC1=O)[C@@H](C)O [compound 136] (Ac-ETF[R8]VYWAQL[S5]SN[dA]-NH2; staple 4-11) |  |  |
| 7.00 to 8.00 | > 8.00 | 7.00 to 8.00 | 7.00 to 8.00 | CCCC[C@H](NC(=O)[C@H](C)NC(=O)[C@H](C)NC(=O)[C@]1(C)CCCC=CCCCCCC[C@@](C)(NC(=O)[C@H](Cc2ccccc2)NC(=O)[C@@H](NC(=O)[C@H](CC(C)C)NC(=O)[C@H](C)NC(C)=O)[C@@H](C)O)C(=O)N[C@@H](CCC(=O)O)C(=O)N[C@@H](Cc2ccc(O)cc2)C(=O)N[C@@H](Cc2c[nH]c3ccccc23)C(=O)N[C@@H](C)C(=O)N[C@@H](CCC(N)=O)C(=O)N[C@@H](CC(C)C)C(=O)N1)C(=O)N[C@@H](C)C(=O)N[C@@H](C)C(N)=O [compound 378] (Ac-ALTF[R8]EYWAQL[S5]AA[Nle]AA-NH2; staple 5-12) |  |  |
|  |  | < 6.00 | > 8.00 | CC(=O)N[C@@H](C(=O)N[C@H](C)C(=O)N[C@H](Cc1c[nH]c2ccccc12)C(=O)N[C@H](Cc1ccc(O)cc1)C(=O)N[C@H](C)C(=O)N[C@H](CC(N)=O)C(=O)N[C@H](Cc1ccc(C(F)(F)F)cc1)C(=O)N[C@H](CCC(=O)O)C(=O)N[C@]1(C)CCCC=CCCC[C@](C)(C(=O)N[C@H](C)C(N)=O)NC(=O)[C@@H](CCCNC(=N)N)NC(=O)[C@@H](CC(C)C)NC(=O)[C@@H](CC(C)C)NC1=O)[C@H](C)O [compound 755] (Ac-[dT][dA][dW][dY][dA][dN][dPhe(4-CF3)][dE][R5][dL][dL][dR][R5][dA]-NH2; staple 9-13) |  |  |
